Test results taken from article PMC6469167, “Cholecystokinin-2 Receptor Targeting with Novel C-terminally Stabilized HYNIC-Minigastrin Analogs Radiolabeled with Technetium-99m” (Pharmaceuticals, 2019).

Assays:
[1] = tested on: A431-CCK2R and A431-mock tumor-xenografts; design: species or system athymic BALB/c nude mice; settings: mouse, in vivo
Description: Biodistribution studies evaluating the tumor uptake of [^99mTc]Tc-HYNIC-MGS5 and [^99mTc]Tc-HYNIC-MGS11 were performed in 7 week-old female athymic BALB/c nude mice (Charles River, Sulzfeld, Germany). To induce tumor-xenografts, mice were injected subcutaneously with 2 × 10^6 A431-CCK2R (right flank) and A431-mock cells (left flank). The tumor-xenografts were allowed to grow for 11–12 days reaching medium tumor weights of ~0.2 g. Mice were randomly divided into groups of four and injected intravenously via a lateral tail vein with 0.3 MBq of the ^99mTc-labeled HYNIC-analogs (corresponding to ~15 pmol total peptide). The groups of animals were sacrificed at 1 h and 4 h p.i., tumors and other tissues (blood, lung, heart, muscle, bone, spleen, intestine, liver, kidney, stomach and pancreas) were removed, weighed, and the radioactivity measured together with a standard in the gamma counter. Results were expressed as percentage of injected activity per gram tissue (% IA/g) and tumor-to-organ activity ratios were calculated for selected tissues. […] The radioactivity in selected organs (stomach, pancreas, liver, kidneys, A431-CCK2R and A431-mock xenograft) was additionally visualized by autoradiography using a phosphorimager (Cyclone Plus, PerkinElmer Life Sciences and Analytical Sciences, Downers Grove, Il, USA). […]

physchem = type: physicochemical
Description: The resistance against degradation of [^99mTc]Tc-HYNIC-MGS5 and [^99mTc]Tc-HYNIC-MGS11 (1000 pmol/mL, n = 2) in human serum was studied for up to 24 h. Furthermore, the radiopeptides were incubated in PBS (1000 pmol/mL, n = 1). At each time point of 1, 2, 4 and 24 h after incubation the intact radiopeptide was assessed by analytical HPLC. Serum samples were precipitated with ACN and centrifuged to collect the supernatant and diluted with water prior to radio-HPLC. […] From each phase a 75 µL sample was taken, the radioactivity measured in a 2480 Wizard^2 automatic gamma-counter (PerkinElmer Life Sciences and Analytical Sciences, Wallac Oy, Turku, Finland) and the distribution of the radiopeptides calculated. The protein binding in human serum (500 pmol/mL, n = 2) was assessed by Sephadex G-50 size-exclusion chromatography (GE Healthcare Illustra, Little Chalfont, UK) for up to 24 h.

Row | tumor-to-kidney ratio [1] | logD (physchem) | Structure (SMILES)
1 | 2.4–3.3 | -2.91 ± 0.06 | CCCC[C@@H](C(=O)N[C@@H](CC(=O)O)C(=O)N[C@@H](Cc1cccc2ccccc12)C(N)=O)N(C)C(=O)[C@H](Cc1c[nH]c2ccccc12)NC(=O)CNC(=O)[C@H](Cc1ccc(O)cc1)NC(=O)[C@H](C)NC(=O)[C@@H](CCC(=O)O)NC(=O)c1ccc(NN)nc1 [[^99mTc]Tc-HYNIC-MGS5, metal not drawn]
2 | 2.0–2.6 | -2.84 ± 0.08 | CCCC[C@@H](C(=O)N[C@@H](CC(=O)O)C(=O)N(C)[C@@H](Cc1cccc2ccccc12)C(N)=O)N(C)C(=O)[C@H](Cc1c[nH]c2ccccc12)NC(=O)CNC(=O)[C@H](Cc1ccc(O)cc1)NC(=O)[C@H](C)NC(=O)[C@@H](CCC(=O)O)NC(=O)c1ccc(NN)nc1 [[^99mTc]Tc-HYNIC-MGS11, metal not drawn]
